Experiment [1] has as its system Aspergillus niger. Description: Antifungal activity against Aspergillus niger ATCC 635 after 72 to 96 hrs by serial dilution method. The experiment is classed as functional.
The next experiment concerns Staphylococcus aureus. Description: Antibacterial activity against Staphylococcus aureus ATCC 25930 after 24 hrs by serial dilution method. The experiment is classed as functional. The settings on record: ATCC 25930, 24 h.
Experiment [2] concerns Klebsiella pneumoniae. As to the kind of experiment: Antibacterial activity against Klebsiella pneumoniae ATCC 16425 after 24 hrs by serial dilution method. The experiment is classed as functional. The settings on record: ATCC 16425, 24 h.
Experiment [3] deals with Escherichia coli. As to the kind of experiment: Antibacterial activity against Escherichia coli ATCC 26032 at 200 ug/ml after 24 hrs by serial dilution method. The experiment is classed as functional, organism-based.
The next experiment has as its system Cryptococcus neoformans. Description: Antifungal activity against Cryptococcus neoformans ATCC 3235 after 72 to 96 hrs by serial dilution method. The experiment is classed as functional.
Another experiment has as its system Candida albicans. As to the kind of experiment: Antifungal activity against Candida albicans ATCC 3430 after 72 to 96 hrs by serial dilution method. The experiment is classed as functional.
The subject of another experiment is Bacillus subtilis. As to the kind of experiment: Antibacterial activity against Bacillus subtilis ATCC 530 after 24 hrs by serial dilution method. The experiment is classed as functional. The settings on record: ATCC 530, 24 h.
Experiment [4] concerns Escherichia coli. As to the kind of experiment: Antibacterial activity against Escherichia coli ATCC 26032 after 24 hrs by serial dilution method. The experiment is classed as functional. The settings on record: ATCC 26032, 24 h.
Another experiment relates to Aspergillus flavus. Description: Antifungal activity against Aspergillus flavus ATCC 525 after 72 to 96 hrs by serial dilution method. The experiment is classed as functional.
The subject of another experiment is Rhizopus. As to the kind of experiment: Antifungal activity against Rhizopus species ATCC 2842 after 72 to 96 hrs by serial dilution method. The experiment is classed as functional.
Another experiment concerns Salmonella typhi. Description: Antibacterial activity against Salmonella typhi ATCC 25021 after 24 hrs by serial dilution method. The experiment is classed as functional, Salmonella enterica subsp. enterica serovar Typhi. The settings on record: Salmonella enterica, ATCC 25021, 24 h.
The test system of experiment [5] is Klebsiella pneumoniae. As to the kind of experiment: Antibacterial activity against Klebsiella pneumoniae ATCC 16425 at 200 ug/ml after 24 hrs by serial dilution method. The experiment is classed as functional, organism-based.
The test system of experiment [6] is Aspergillus niger. Description: Antifungal activity against Aspergillus niger ATCC 635 at 200 ug/ml after 72 to 96 hrs by serial dilution method. The experiment is classed as functional, organism-based.

This is an account of results in ChEMBL document CHEMBL1268977, “Efficient synthesis, spectral analysis and antimicrobial studies of nitrogen and sulfur containing spiro heterocycles from 2,4-diaryl-3-azabicyclo[3.3.1]nonan-9-ones” (2010).

Values after ≈ are worked out from the molar mass of the structure shown. Active and inactive are the calls of the source. The rule behind the calls is not given here.

On to `COc1cccc(C2NC(c3cccc(OC)c3)C3CCCC2C32SC(NC(C)=O)=NN2C(C)=O)c1` (stereo not given), for which the MIC against Aspergillus niger [1] is 100 µg/mL (≈ 197 µM); against Staphylococcus aureus it was 100 µg/mL (≈ 197 µM); with Klebsiella pneumoniae [2], 100 µg/mL (≈ 197 µM); in the experiment on Cryptococcus neoformans, 50 µg/mL (≈ 98.3 µM); in the experiment on Candida albicans it was 25 µg/mL (≈ 49.2 µM); with Bacillus subtilis, 50 µg/mL (≈ 98.3 µM). The results for the minimum inhibitory concentration (MIC) against Escherichia coli [4], with Aspergillus flavus and against Rhizopus were 200 µg/mL (≈ 393 µM), 200 µg/mL (≈ 393 µM) and 50 µg/mL (≈ 98.3 µM), respectively. In the experiment with Escherichia coli [3], the inhibition result was “inactive”.

`CCC(=O)NC1=NN(C(=O)CC)C2(S1)C1CCCC2C(c2cccc(OC)c2)N(C(=O)CC)C1c1cccc(OC)c1` (stereo not given): the MIC with Staphylococcus aureus is 100 µg/mL (≈ 169 µM); against Salmonella typhi, 200 µg/mL (≈ 337 µM); against Cryptococcus neoformans it was 200 µg/mL (≈ 337 µM); against Candida albicans it was 25 µg/mL (≈ 42.2 µM); with Bacillus subtilis it was 50 µg/mL (≈ 84.4 µM); in the experiment with Escherichia coli [4] it was 50 µg/mL (≈ 84.4 µM). In addition, the MIC in the experiment with Aspergillus flavus came to 25 µg/mL (≈ 42.2 µM); with Rhizopus, 50 µg/mL (≈ 84.4 µM). In addition, the inhibition entry in the experiment on Klebsiella pneumoniae [5] and in the experiment on Aspergillus niger [6] was “inactive” each time.
